“And” between values parts separate entries of the source, which are not always exact repeats. Identical values can stand only once. “Also recorded” adds a separate entry of the source. One block for each compound: values may come before it.
Columns and labels:
[1] = tested on: acetylated α-tubulin and acetylated histone H3 in LNCaP cells; assay: Accumulation of acetylated α-tubulin and acetylated histone H3 in LNCaP cells (Western blot); type: cell-based, human; conditions: BAHA 1.0 or 1.5 μM, SAHA 1.5 and 2.0 μM
Description: 2×10^6 transformed cells were cultured for 24 hrs in a 10 cm tissue culture dish with 10 ml RPMI 1640 medium. HDAC inhibitors and/or other agents were added in concentrations as indicated for each study to the cultures and cell cultured for times indicated. Cells were harvested by scrapping, washed once with PBS, lyzed with histone extraction buffer (1 ml/10^7 cells), which contains 10 mM MgCl2, 10 mM Tris, 25 mM KCl, 1% Triton X-100, 8.6% sucrose and protease inhibitor cocktail (Roche Diagnostics Gmbh, Indianapolis, Ind.), pH 6.5. Cells were centrifuged at 600 g at 4° C. for 5 mins. The supernatants were saved as cell lyates. The pellets (nuclei) were washed once with TE buffer, suspended in 0.4 NH2SO4 (100 μl/10^7 cells), incubated for 1 hr on ice, and centrifuged at 10,000 g for 10 mins at 4° C. The supernatant was collected, mixed with 1 ml acetone, incubated at −20° C. for more than 1 hr, and centrifuged at 10,000 g for 10 mins at 4° C. The pellets were suspended in water (100 μl/10^7 cells). The protein concentrations were measured with Braford reagent (Bio-Rad, Hercules, Calif.).
1×10^6 cells in a 10 cm diameter cell culture dish were washed with PBS, harvested by trypsinization in 0.05% trypsin for LNCaP and 0.25% trypsin for MCF7, A549, HFS and WI38 resuspended in RIPA at 50 μl for every 1×10^6 cells. Antibodies used were: anti-acetylated tubulin (Sigma), anti-HDAC 6 (Santa Cruz Biotechnology), and anti-tubulin (Calbiochem), (Xu et al. Cancer Research, 65:7832-7839, 2005).

recombinant human HDAC1 = recombinant human HDAC1 (Homo sapiens, UniProt Q13547); assay: In vitro HDAC assay with fluorogenic substrate, HDAC 1
Description: Inhibition of HDAC 1 and HDAC 6 were analyzed with a fluorogenic substrate according to manufacture's protocol (HDAC assay reagents were purchased from BPS Biosciences, San Diego, Calif.). 50 μl reaction mixture, which contains 1×HDAC assay buffer, 5 units of recombinant human HDAC1 or HDAC 6, 10 μM substrate 3 and 1 μl inhibitor in DMSO, was incubated at 37° C. for 1 hour. […] The fluorescence intensity was measured at excitation of 360 nm and emission of 460 nm with SpectraMax Gemini XS microplate reader (Molecular Devices, Sunny Calif.).

LNCaP cells [2] = assay: Cell growth and viability by trypan blue exclusion, LNCaP
Description: (§1) 5×10^4 cells were seeded per well in a 24-well plate and cultured overnight prior to treating with the compound and/or other agents as indicated for each study. Cells were harvested at 24, 48 and 72 hrs after treatment by trypsin digestion. […] At least three independent analyses were performed for each time point.
(§2) To monitor cell growth and viability, cells were seeded in triplicate at 5×10^4 cells in 1 ml of medium in 24-well plates. The drugs were added at the indicated concentrations 24 h after seeding. Cells were harvested by trypsin digestion at 24 h, 48 h and 72 h following drug additions. Cell number and viability were determined by trypan blue exclusion.

MCF-7 cells = assay: Cell growth and viability by trypan blue exclusion, MCF-7; type: cell-based, human; conditions: MCF-7, 72 hrs; 8 μM tubacin, 5 μM SAHA, […] doxorubicin, 100 μM etoposide, alone or plus 8 μM tubacin
Description: as §1, §2

HFS cells = assay: Cell viability, normal human foreskin cells (HFS); type: cell-based; conditions: 8 μM tubacin, 5 μM SAHA, alone or together
Description: as §1, §2

WI38 cells = assay: Cell viability, normal human embryonic fibroblast WI38; type: cell-based; conditions: 8 μM tubacin, 5 μM SAHA, alone or together
Description: as §1

[3] = tested on: LNCaP HDAC 6 knockdown cells; assay: Cell viability, LNCaP HDAC 6 knockdown cells; type: cell-based, human
From the text: shRNA lentiviral particles targeting different regions of HDAC6 mRNA, HDAC6 KD1 (HDAC6 knockdown 1) at 1.7×10^7 TU/ml and HDAC6 KD2 (HDAC6 knockdown 2) at 1.9×10^7 TU/ml, and a non-targeting ‘scramble’ shRNA control particles (#SHC002V) at 1.1×10^7 TU/ml, were purchased from Sigma-Aldrich and transfected according to the manufacturer's instructions using polybrene (Millipore). The 21-nucleotide sequence corresponding to HDAC6 mRNA for HDAC6 KD1 is 5′-[…]-3′ and for HDAC6 KD2 is 5′-[…]-3′. For each shRNA, 5×10^5 cells were infected at an MOT of 2.

γH2AX = assay: Accumulation of γH2AX in LNCaP cells (Western blot, ImageJ quantitation); type: cell-based, human; conditions: 24 h
Description: (§3) 1×10^6 cells were seeded in a 10 cm diameter cell culture dish and cultured overnight prior to addition of the indicated drugs, washed with PBS, harvested by trypsinisation and lysed in RIPA buffer (50 mM Tris-HCL pH8.0, 120 mM NaCl, 0.5 mM EDTA, 0.5% NP-40). […] Quantitation of western blots was performed using ImageJ.

phospho-Chk2 = assay: Accumulation of phospho-Chk2 in LNCaP cells (Western blot); type: cell-based, human; conditions: 24 h
Description: as §3

LNCaP cells [4] = assay: Microarray analysis of gene expression in LNCaP cells; type: cell-based, human; design: Total gene number: dose or concentration left out as unconfirmed
Description: Alterations in gene expression were evaluated by microarray using the Illumina human cDNA array containing cDNA probes representing the whole genome (10000 genes). […] Triplicate samples were prepared for each drug treatment at each time point. Poly(A)+ mRNA was isolated from cells using Trizol reagent according to manufacturer's protocol (Invitrogen). The data was analyzed using the Bioconductor packages (www.bioconductor.com) for the R statistical system. The output from Beadstudio was processed using the LUMI package. The normalization method used was quantile and the signal levels were log (base 2) transformed. To determine genes that are differentially expressed between the various sample types, the LIMMA package was used.

LNCaP cells [5] = assay: Quantitative real-time PCR in LNCaP cells; type: cell-based, human; conditions: for expression of Mcm4, Mcm6, Cdt1 and Psf2: quantitative real-time PCR
Description: […] of total RNA was reverse-transcribed using the Thermoscript RT-PCR system (Invitrogen) at 52° C. for 1 h. 20 ng of resultant cDNA was used in a Q-PCR reaction using an 7500 Real-Time PCR System (Applied Biosystems) using predesigned primers for DDIT3, DDIT4, Mcm4, Mcm6, Cdt1, Psf2 and GAPDH (Applied Biosystems). Amplification was carried for 40 cycles (95° C. for 15 sec, 60° C. for 1 min). To calculate the efficiency of the PCR reaction, and to assess the sensitivity of each assay, we performed a 6 point standard curve (5, 1.7, 0.56, 0.19, 0.062, and 0.021 ng). Triplicate CT values were averaged, amounts of target were interpolated from the standard curves and normalized to GAPDH (assay Hs99999909_m1).

LNCaP cells [6] = assay: Cell cycle analysis by flow cytometry, LNCaP; type: cell-based, human; conditions: 24 h, propidium iodide
Description: Cells were harvested at 24 h culture with the indicated drugs, washed with PBS and fixed in methanol. Cells were then resuspended in a buffer containing […] propidium iodide and […] RNase A. Samples were analysed by flow cytometry using a Becton Dickinson FACSCalibur flow cytometer. Data were collected for 10,000 events and analyzed using FlowJo software.

PARP = PARP cleavage in LNCaP cells (Western blot); conditions: 48 h
Description: as §3

[7] = tested on: acetylated tubulin and acetylated histone H3 in A549 cells; conditions: 24 hrs, tubacin 0.2, 2 or 20 μM; cited from earlier work
[8] = LNCaP, 25 μM or 50 μM SAHA, 72 hrs

recombinant human HDAC1, sequence (Q13547 whole entry): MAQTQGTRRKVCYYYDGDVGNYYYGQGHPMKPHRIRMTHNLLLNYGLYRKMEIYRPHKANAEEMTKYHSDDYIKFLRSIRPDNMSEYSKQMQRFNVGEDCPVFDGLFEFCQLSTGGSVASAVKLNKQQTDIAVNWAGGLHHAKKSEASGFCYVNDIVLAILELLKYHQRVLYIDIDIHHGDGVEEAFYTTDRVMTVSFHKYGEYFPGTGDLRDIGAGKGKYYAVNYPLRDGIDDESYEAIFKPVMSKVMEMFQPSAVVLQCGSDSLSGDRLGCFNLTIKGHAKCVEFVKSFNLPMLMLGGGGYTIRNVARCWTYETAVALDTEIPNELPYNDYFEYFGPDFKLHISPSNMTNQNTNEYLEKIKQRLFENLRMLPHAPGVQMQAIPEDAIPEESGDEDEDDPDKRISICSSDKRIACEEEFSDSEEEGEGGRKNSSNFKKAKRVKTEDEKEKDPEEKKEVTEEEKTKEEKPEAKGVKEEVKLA

IC50 (recombinant human HDAC1): 53.7 nM
Compound: CC(C)(C)OC(=O)Nc1ccc(-c2cc(C(=O)NCCCCCCC(=O)NO)no2)cc1 [BAHA]
accumulation of acetylated histone H3 [1]: little or no accumulation
accumulation of acetylated α-tubulin [1]: caused the accumulation
cell death (LNCaP cells [2]; LNCaP, 1 μM BAHA): no cell death
cell growth (LNCaP cells [2]; LNCaP, 1 μM BAHA): moderate inhibition

Compound: O=C(CCCCCCC(=O)Nc1ccccc1)NO [SAHA, Suberoylanilide Hydroxamic Acid]
accumulation of acetylated histone H3 [1]: caused an increase in accumulation
accumulation of acetylated α-tubulin [1]: caused an increase in accumulation
cell death (MCF-7 cells): 40%
rate of cell growth (MCF-7 cells): markedly decreased
cell death (HFS cells): did not cause cell death
cell death (WI38 cells): did not cause cell death
cell death ([3]; LNCaP HDAC 6 knockdown, 2.5 μM SAHA, 72 hrs): 25%
cell death ([3]; LNCaP HDAC 6 knockdown, 5.0 μM SAHA, 72 hrs): 80%
accumulation of γH2AX (γH2AX): increased
level of phospho-Chk2 (phospho-Chk2): increase of phospho-Chk2
DDIT3 gene expression change (LNCaP cells [4]; 2 h): 2.18 fold
DDIT4 gene expression change (LNCaP cells [4]; 2 h): * (No detectable change of ≧2-fold)
Total gene number (LNCaP cells [4]; 2 h, genes changed ≧2-fold): 37
Downregulated genes (LNCaP cells [4]; 2 h, ≧2-fold): 16
Upregulated genes (LNCaP cells [4]; 2 h, ≧2-fold): 21
DDIT4 gene expression change (LNCaP cells [4]; 8 h): 5.36 fold
Downregulated genes (LNCaP cells [4]; 8 h, ≧2-fold): 302
Total gene number (LNCaP cells [4]; 8 h, ≧2-fold): 628
Upregulated genes (LNCaP cells [4]; 8 h, ≧2-fold): 326
DDIT4 gene expression change (LNCaP cells [4]; 24 h): 3.81 fold
Downregulated genes (LNCaP cells [4]; 24 h, ≧2-fold): 989
Total gene number (LNCaP cells [4]; 24 h, ≧2-fold): 1951
Upregulated genes (LNCaP cells [4]; 24 h, ≧2-fold): 962
expression of Mcm4, Mcm6, Cdt1 and Psf2 (LNCaP cells [5]): downregulated
cell cycle distribution (LNCaP cells [6]): increase in both G1 and G2 arrested cells
PARP cleavage (PARP; 2.5 mM SAHA): did not result in PARE cleavage
PARP cleavage (PARP; 5 mM SAHA): resulted in PARP cleavage
cell death (LNCaP cells [2]; LNCaP, 1.25 μM SAHA, alone or plus 1 μM BAHA, 72 hrs): no detectable cell death
cell death (LNCaP cells [2]; LNCaP, 2.5 μM SAHA, alone or plus 1 μM BAHA, 72 hrs): less than 10%
cell death (LNCaP cells [2]; LNCaP, 2.5 μM SAHA, alone or with 8 μM tubacin, 72 hrs): no detectable
cell death (LNCaP cells [2]; LNCaP, 5 μM SAHA, alone or plus 1 μM BAHA, 72 hrs): 65%
cell death (LNCaP cells [2]; LNCaP, 5 μM SAHA, alone or with 8 μM tubacin, 72 hrs): 45%
cell death (LNCaP cells [2]; [8]): 100%
cell growth (LNCaP cells [2]; [8]): growth inhibition
rate of cell growth (LNCaP cells [2]; LNCaP, 2.5, 5 or […] SAHA, alone or plus 8 μM tubacin): markedly decreased
cell death (LNCaP cells [2]; LNCaP, […] SAHA, alone or plus 8 μM tubacin, after 8 hrs): 40%
cell death (LNCaP cells [2]; wild type LNCaP, 2.5 μM SAHA, 72 hrs (knockdown comparison)): no cell death
cell death (LNCaP cells [2]; wild type LNCaP, 5.0 μM SAHA, 72 hrs (knockdown comparison)): 35%

Compound: CC(/C=C/C(=O)NO)=C\[C@@H](C)C(=O)c1ccc(N(C)C)cc1 [Trichostatin A]
accumulation of acetylated histone H3 [7]: caused the accumulation
accumulation of acetylated tubulin [7]: caused the accumulation

Compound: COc1cccc2c1C(=O)c1c(O)c3c(c(O)c1C2=O)C[C@@](O)(C(=O)CO)C[C@@H]3O[C@H]1C[C@H](N)[C@H](O)[C@H](C)O1 [doxorubicin]
cell death (MCF-7 cells): 25%
rate of cell growth (MCF-7 cells): markedly decreased
cell death ([3]; LNCaP HDAC 6 knock down, 10 nM doxorubicin, 72 hrs): 85%
cell death ([3]; LNCaP HDAC 6 knock down, 100 nM doxorubicin, 72 hrs): 90%
cell death ([3]; LNCaP HDAC 6 knock down, 500 nM doxorubicin, 72 hrs): 95%
cell death (LNCaP cells [2]; LNCaP, 5 nM doxorubicin, alone or plus 8 μM tubacin, 48 hrs): 40%
rate of cell growth (LNCaP cells [2]; LNCaP, 10 nM doxorubicin, alone or plus 8 μM tubacin): decreased
cell death (LNCaP cells [2]; LNCaP, […] doxorubicin, alone or plus 8 μM tubacin, 48 hrs): 80%
cell death (LNCaP cells [2]; wild type LNCaP, 10 nM doxorubicin, 72 hrs): 45%
cell death (LNCaP cells [2]; wild type LNCaP, 100 nM doxorubicin, 72 hrs): 75%
cell death (LNCaP cells [2]; wild type LNCaP, 500 nM doxorubicin, 72 hrs): 85%

Compound: COc1cc([C@@H]2c3cc4c(cc3[C@@H](O[C@@H]3O[C@@H]5CO[C@@H](C)O[C@H]5[C@H](O)[C@H]3O)[C@H]3COC(=O)[C@H]23)OCO4)cc(OC)c1O [etoposide]
cell death (MCF-7 cells): 30%
rate of cell growth (MCF-7 cells): markedly decreased
cell death ([3]; LNCaP HDAC 6 knockdown, 10 μM etoposide, 48 hrs): 20%
cell death ([3]; LNCaP HDAC 6 knockdown, 50 μM etoposide, 48 hrs): 35%
cell death ([3]; LNCaP HDAC 6 knockdown, 100 μM etoposide, 48 hrs): 55%
expression of Mcm4, Mcm6, Cdt1 and Psf2 (LNCaP cells [5]): downregulated
cell cycle distribution (LNCaP cells [6]): small increase in cells in G1
cell death (LNCaP cells [2]; LNCaP, 50 μM etoposide, alone or plus 8 μM tubacin, 72 hrs): 50%
cell death (LNCaP cells [2]; LNCaP, 100 μM etoposide, alone or plus 8 μM tubacin, 72 hrs): 80%
cell death (LNCaP cells [2]; wild type LNCaP, 10 μM etoposide, 48 hrs): 10%
cell death (LNCaP cells [2]; wild type LNCaP, 50 μM etoposide, 48 hrs): 30%
cell death (LNCaP cells [2]; wild type LNCaP, 100 μM etoposide, 48 hrs): 40%

Compound: O=C(CCCCCCC(=O)Nc1ccc([C@H]2O[C@@H](CSc3nc(-c4ccccc4)c(-c4ccccc4)o3)C[C@@H](c3ccc(CO)cc3)O2)cc1)NO [tubacin]
cell death (MCF-7 cells): did not induce MCF-7 cell death
rate of cell growth (MCF-7 cells): somewhat decreased
cell death (HFS cells): did not cause cell death
cell death (WI38 cells): did not cause cell death
accumulation of γH2AX (γH2AX): increased
DDIT3 gene expression change (LNCaP cells [4]; 2 h): * (No detectable change of ≧2-fold)
Total gene number (LNCaP cells [4]; 2 h, genes changed ≧2-fold): 1
Downregulated genes (LNCaP cells [4]; 2 h, ≧2-fold): 0
Upregulated genes (LNCaP cells [4]; 2 h, ≧2-fold): 1
DDIT4 gene expression change (LNCaP cells [4]; 8 h): 5.54 fold
Downregulated genes (LNCaP cells [4]; 8 h, ≧2-fold): 1
Total gene number (LNCaP cells [4]; 8 h, ≧2-fold): 7
Upregulated genes (LNCaP cells [4]; 8 h, ≧2-fold): 6
DDIT3 gene expression change (LNCaP cells [4]; 24 h): 7 fold and 7.04 fold
DDIT4 gene expression change (LNCaP cells [4]; 24 h): 6.8 fold
Downregulated genes (LNCaP cells [4]; 24 h, ≧2-fold): 72
Total gene number (LNCaP cells [4]; 24 h, ≧2-fold): 225
Upregulated genes (LNCaP cells [4]; 24 h, ≧2-fold): 153
DDIT4 expression by quantitative real-time PCR (LNCaP cells [5]): upregulation
expression of Mcm4, Mcm6, Cdt1 and Psf2 (LNCaP cells [5]): downregulated
cell cycle distribution (LNCaP cells [6]): increase in G1 arrest
accumulation of acetylated histone H3 [7]: but not acetylated histone H3
accumulation of acetylated tubulin [7]: caused an accumulation
IC50 (recombinant human HDAC1): 82 nM
cell death (LNCaP cells [2]; LNCaP, tubacin alone (8 μM), up to 72 hrs): did not cause cell death; also recorded: did not induce LNCaP cell death

Source: US9539272B2, “HDAC 6 inhibitor-based methods for treating cancer” (SLOAN-KETTERING INSTITUTE FOR CANCER RESEARCH, priority 2009, dated 2017)
